Data set [1] can be described thus: Gelation / self-assembly in water. The data set is classed as physicochemical. The protocol:
(§1) In order to determine the minimum gelation concentration in water, the cyclic peptides were attempted to be dissolved in MilliQ water.
(§2) In order to introduce a charged amino acid residue cLK6 was synthesized and its ability to form hydrogels was investigated. For this purpose cLK6 was dissolved at a concentration of 10 mg/mL in water.

A short description of data set [2]: Stimuli response of gelation to salt (1× PBS). It counts as physicochemical. The note with it: 5 mg/mL in 1× PBS, after vortexing. The protocol: Our previous studies on the parent peptide Ac-LIVAGK-NH2 have shown stimuli responsive behaviour to salt, which allows to reduce the minimum gelation concentration by 50%. […] For this purpose, cLK6 was dissolved in 9 parts of water and afterwards 1 part of 10× PBS solution was added.

The nature of data set [3]: Solubility of the cyclic peptides in MilliQ water. The protocol: as §1, §2
For data set [4] the following is noted: stimuli responsive behaviour to salt; applicant's previous studies; cited from earlier work.

Entries after “also recorded” stand apart in the source; their conditions may differ. Non-standard residues stand in square brackets, D forms with d. Residues, ends and D or L forms follow the SMILES beside them.

In the case of `CC[C@H](C)[C@@H]1NC(=O)[C@@H](CC(C)C)NC(=O)[C@H](CCCCN)NC(=O)CNC(=O)[C@H](C)NC(=O)[C@@H](C(C)C)NC1=O` [cLK6, cLIVAGK] (cyclo([dL]I[dV]AGK)), the gel formation entry in data set [1] (5 mg/mL in water, prepared in the same way, overnight) is on record as “clear hydrogel was formed”; in data set [1] (10 mg/mL in water, heated at 60° C., then standing at room temperature) it was “opaque sol gel was formed”; in data set [1] (peptide concentration further reduced below 5 mg/mL in water), “no hydrogel formation”. The “gel formation in salt solution” value in data set [2] is listed as “only peptide aggregation, resulting in precipitation”. Besides, the “solubility in water at 10 mg/mL” value in data set [3] (10 mg/mL in water) was “full solubility was only achieved, when the peptide solution was heated at 60 °C for about 2 h”.
With `CC[C@H](C)[C@@H]1NC(=O)[C@@H](CC(C)C)NC(=O)[C@H](CO)NC(=O)CNC(=O)[C@H](C)NC(=O)[C@@H](C(C)C)NC1=O` [cLS6, cLIVAGS] (cyclo([dL]I[dV]AGS)), in data set [1] (dissolved in hexafluoroisopropanol (HFIP) and dropped slowly into water), the self-assembly in water result was “gelatinous “precipitate” is formed; also recorded: still displays self-assembling properties”. Further, in data set [3] (MilliQ water), the solubility in water result is on record as “low solubility; also recorded: limited water solubility”.
As for “Ac-LIVAGK-NH2 [linear parent ultrashort peptide of cLK6, previously reported by the inventors]”, the “reduction of the minimum gelation concentration by salt” value in data set [4] is 50%.
